According to ChEMBL document CHEMBL4190309, “Synthesis, antimicrobial, DNA cleavage and antioxidant activities of tricyclic sultams derived from saccharin” (Eur J Med Chem, 2017):
≈ marks a conversion by molar mass, not a printed value. Calls of active or inactive are those of the source. The calls are words filed in the database; no cut-off is given here.

How the values were obtained:
[1] = Antioxidant activity assessed as superoxide anion scavenging activity at 2 uM at pH 8.3 by NBT/NADH/PMS assay relative to control; type: functional
[2] = Antioxidant activity assessed as superoxide anion scavenging activity at pH 8.3 by NBT/NADH/PMS assay; type: functional
[3] = test system: Pseudomonas aeruginosa; experiment: Antibacterial activity against Pseudomonas aeruginosa ATCC 27853 assessed as diameter of inhibition zone at 100 uM after 24 hrs by cup diffusion method; type: functional; details: ATCC 27853, 24 h, read-out: DIZ
[4] = test system: DNA; experiment: Induction of Escherichia coli DNA cleavage after 1 hr by […] staining-based agarose gel electrophoresis; type: nucleic-acid assay
[5] = test system: Escherichia coli; experiment: Antibacterial activity against Escherichia coli ATCC 25922 assessed as diameter of inhibition zone at 100 uM after 24 hrs by cup diffusion method; type: functional; details: ATCC 25922, 24 h, read-out: DIZ
[6] = test system: Priestia megaterium; experiment: Antibacterial activity against Bacillus megaterium ATCC 14591 assessed as diameter of inhibition zone at 100 uM after 24 hrs by cup diffusion method; type: functional; details: ATCC 14591, 24 h, read-out: DIZ
[7] = test system: Staphylococcus aureus; experiment: Antibacterial activity against Staphylococcus aureus ATCC 25923 assessed as diameter of inhibition zone at 100 uM after 24 hrs by cup diffusion method; type: functional; details: ATCC 25923, 24 h, read-out: DIZ
[8] = Antiproliferative activity against hepatic cancer cells (unknown origin) at 50 uM by MTT assay relative to control; type: functional
[9] = Antioxidant activity assessed as ABTS radical scavenging activity at 2 uM by spectrophotometric analysis; type: functional
[10] = test system: DNA; experiment: Induction of Escherichia coli DNA cleavage at 2 uM after 1 hr by […] staining-based agarose gel electrophoresis; type: nucleic-acid assay
[11] = test system: DNA; experiment: Induction of Escherichia coli DNA cleavage at 10 to 12 uM after 1 hr by […] staining-based agarose gel electrophoresis; type: nucleic-acid assay
[12] = test system: Staphylococcus aureus; experiment: Antibacterial activity against Staphylococcus aureus ATCC 25923 after 24 hrs by serial dilution method; type: functional; details: ATCC 25923, 24 h
[13] = test system: Pseudomonas aeruginosa; experiment: Antibacterial activity against Pseudomonas aeruginosa ATCC 27853 after 24 hrs by serial dilution method; type: functional; details: ATCC 27853, 24 h
[14] = test system: DNA; experiment: Induction of Escherichia coli DNA cleavage at 8 uM after 1 hr by […] staining-based agarose gel electrophoresis; type: nucleic-acid assay
[15] = test system: Escherichia coli; experiment: Antibacterial activity against Escherichia coli ATCC 25922 after 24 hrs by serial dilution method; type: functional; details: ATCC 25922, 24 h
[16] = test system: DNA; experiment: Induction of Escherichia coli DNA cleavage at 6 uM after 1 hr by […] staining-based agarose gel electrophoresis; type: nucleic-acid assay
[17] = test system: DNA; experiment: Induction of Escherichia coli DNA cleavage at 4 uM after 1 hr by […] staining-based agarose gel electrophoresis; type: nucleic-acid assay

| IC50 [2] [nM] | Activity [4] | Activity [10] | Activity [11] | MIC [12] [µg/mL] | MIC [13] [µg/mL] | Activity [14] | MIC [15] [µg/mL] | Activity [16] | Activity [17] | Compound | Activity [1] [%] | Activity [2] | zone of inhibition at 100 µM [3] [mm] | zone of inhibition at 100 µM [5] [mm] | zone of inhibition at 100 µM [6] [mm] | zone of inhibition at 100 µM [7] [mm] | Activity [8] [%] | Activity [9] [%] |
| --- | --- | --- | --- | --- | --- | --- | --- | --- | --- | --- | --- | --- | --- | --- | --- | --- | --- | --- |
| 2070 | Dose-dependent effect | inactive | Active | 14 (≈ 50.1 µM) | 15 (≈ 53.7 µM) | Active | 18 (≈ 64.4 µM) |  |  | CCOC(=O)C1=C2c3ccccc3S(=O)(=O)N2CC1 | 48.3 | Dose-dependent effect | 14 | 16 | 16 | 17 | 19.6 | 46.7 |
| 1680 | Dose-dependent effect | inactive | Active | 15 (≈ 56.5 µM) | 14 (≈ 52.8 µM) | Active | 15 (≈ 56.5 µM) | Active |  | COC(=O)C1=C2c3ccccc3S(=O)(=O)N2CC1 | 59.4 | Dose-dependent effect | 16 | 17 | 19 | 20 | 36.6 | 63.8 |
| 2230 | Dose-dependent effect | inactive | Active | 16 (≈ 49 µM) | 28 (≈ 85.8 µM) |  | 21 (≈ 64.3 µM) |  |  | O=C(Nc1ccccc1)C1=C2c3ccccc3S(=O)(=O)N2CC1 | 44.8 | Dose-dependent effect | 12 | 13 | 12 | 14 | 58.6 | 46.9 |
| 1710 | Dose-dependent effect | inactive | Active | 24 (≈ 61.6 µM) | 25 (≈ 64.2 µM) | Active | 33 (≈ 84.7 µM) | Active | Active | CC(C)[C@@H]1CC[C@@H](C)C[C@H]1OC(=O)C1=C2c3ccccc3S(=O)(=O)N2CC1 | 58.6 | Dose-dependent effect | 18 | 17 | 18 | 19 | 70.2 | 60.3 |

Second part, the molecule before the results:

| Compound | IC50 [2] [nM] | Activity [4] | Activity [10] | Activity [11] | MIC [12] [µg/mL] | MIC [13] [µg/mL] | Activity [14] | MIC [15] [µg/mL] | Activity [16] | Activity [17] | Activity [1] [%] | Activity [2] | zone of inhibition at 100 µM [3] [mm] | zone of inhibition at 100 µM [5] [mm] | zone of inhibition at 100 µM [6] [mm] | zone of inhibition at 100 µM [7] [mm] | Activity [8] [%] | Activity [9] [%] |
| --- | --- | --- | --- | --- | --- | --- | --- | --- | --- | --- | --- | --- | --- | --- | --- | --- | --- | --- |
| CC1(C)S[C@@H]2[C@H](NC(=O)[C@H](N)c3ccccc3)C(=O)N2[C@H]1C(=O)O [AMPICILLIN] |  |  |  |  |  |  |  |  |  |  |  |  | 20 | 19 | 21 | 23 |  |  |
| COc1ccc(NC(=O)C2=C3c4ccccc4S(=O)(=O)N3CC2)cc1 | 2020 | Dose-dependent effect | inactive | Active | 22 (≈ 61.7 µM) | 33 (≈ 92.6 µM) | Active | 22 (≈ 61.7 µM) |  |  | 49.4 | Dose-dependent effect | 14 | 15 | 13 | 16 | 61 | 48.2 |
| O=C(Nc1ccc([N+](=O)[O-])cc1)C1=C2c3ccccc3S(=O)(=O)N2CC1 | 1950 | Dose-dependent effect | inactive | Active | 18 (≈ 48.5 µM) | 19 (≈ 51.2 µM) | Active | 24 (≈ 64.6 µM) |  |  | 51.2 | Dose-dependent effect | 14 | 13 | 11 | 12 | 56.6 | 54.7 |
| CC1(C)[C@H]2CC[C@]1(C)[C@H](OC(=O)C1=C3c4ccccc4S(=O)(=O)N3CC1)C2 | 1660 | Dose-dependent effect | inactive | Active | 18 (≈ 46.5 µM) | 27 (≈ 69.7 µM) | Active | 23 (≈ 59.4 µM) | Active |  | 60.1 | Dose-dependent effect | 14 | 16 | 17 | 18 | 63 | 62.7 |
| O=C(OCCCl)C1=C2c3ccccc3S(=O)(=O)N2CC1 | 1580 | Dose-dependent effect | inactive | Active | 8 (≈ 25.5 µM) | 20 (≈ 63.7 µM) | Active | 21 (≈ 66.9 µM) | Active | Active | 63.1 | Dose-dependent effect | 18 | 17 | 20 | 20 | 59.6 | 64.8 |
| CN[C@H](CC(C)C)C(=O)N[C@H]1C(=O)N[C@@H](CC(N)=O)C(=O)N[C@H]2C(=O)N[C@H]3C(=O)N[C@H](C(=O)N[C@H](C(=O)O)c4cc(O)cc(O)c4-c4cc3ccc4O)[C@H](O)c3ccc(c(Cl)c3)Oc3cc2cc(c3O[C@@H]2O[C@H](CO)[C@@H](O)[C@H](O)[C@H]2O[C@H]2C[C@](C)(N)[C@H](O)[C@H](C)O2)Oc2ccc(cc2Cl)[C@H]1O [VANCOMYCIN] |  |  |  |  | 14 (≈ 9.66 µM) |  |  |  |  |  |  |  |  |  |  |  |  |  |
| Cc1ccccc1NC(=O)C1=C2c3ccccc3S(=O)(=O)N2CC1 | 1620 | Dose-dependent effect | inactive | Active | 12 (≈ 35.3 µM) | 17 (≈ 49.9 µM) |  | 11 (≈ 32.3 µM) | Active | Active | 61.7 | Dose-dependent effect | 18 | 17 | 20 | 19 | 49.6 | 62.5 |
